Measured values reported in US5712298A, “Fluoroalkoxy-substituted benzamides and their use as cyclic nucleotide phosphodiesterase inhibitors” (BYK Gulden Lomberg Chemische Fabrik GmbH, priority 1993, dated 1998).
Blank lines part the entries; values can stand above or below the compound they belong to.

Legend:
PDE IV = assay: Inhibition of PDE IV activity; type: biochemical
conscious guinea-pigs = assay: Effect on dyspnoea and migration of proinflammatory cells into the airway lumen after allergic reaction of conscious guinea-pigs; type: in vivo, guinea-pig; settings: 30 μmol/kg p.o.
Text: 2. Effect of dyspnoea and migration of proinflammatory (immunocompetent) cells from the blood vessels into the airway lumen after allergic reaction of conscious guinea-pigs
Immunocompetent blood cells (leucocytes) appear in the airway lumens under the influence of allergic, inflammatory reactions. This pathological migration can support itself, i.e. lead to chronic changes, and plays an important part as a pathological mechanism of chronic airway obstruction (of asthma) but also of allergic rhinitis and/or conjunctivitis. The inhibition of the migration by pharmaceuticals is an important therapeutic principle and is a measure of antiallergic or antiinflammatory actions.
The experimental animal methodology employed for the measurement of the acute effect of an allergic reaction on respiration and cell migration itself essentially follows the descriptions of P. A. Hutson et al. (Am. Rev. Respir. Dis., 137, 548, 1988) and J. P. Tarayre et al. (J. Parmacol. Meth., 23, 13, 1990) and also R. Beume et al. (Atemw. Lungenkrkh., 11, 324, 1985).
A defined guinea-pig collective is sensitized intraperitoneally to ovalbumin (20 μg+20 mg of Al(OH)3). 14 days later, the animals are tested:
0 h provocation of the allergic reaction, thoracographic latency time measurement until occurrence of dyspnoea, non-occurrence=protective action.
+24 h anaesthesia and bronchoalveolar lavage: Determination of the total cell number, counting of the differential cell picture in the lavage, determination of the protein content in the cell-free supernatant of the lavage.
The controlled used in each case was 1 random sample of sensitized animals: Placebo treatment+sham provocation or placebo treatment+provocation.
The compound of Example 1 (=compound 1), 30 μmol/kg p.o., acts on the parameters of this relation as follows: […]

[1] = bronchoalveolar lavage +24 h after provocation
[2] = cell-free supernatant of lavage +24 h after provocation

-log IC50 (PDE IV): 8.64
Structure (SMILES): COc1cc(C(=O)Nc2c(Cl)cncc2Cl)ccc1OC(F)F [Compound 1, N-(3,5-Dichloropyrid-4-yl)-4-difluoromethoxy-3-methoxybenzamide]
Passage of cells and protein after provocation (conscious guinea-pigs; base values = placebo + sham provocation): inhibits these passages to base values
Eosinophilic granulocytes, median (conscious guinea-pigs; [1]): 1.2 × 10^6 /10 ml
Eosinophilic granulocytes, median: bracketed value (relative to placebo + sham provocation = 1) (conscious guinea-pigs; [1]): 1.5
Eosinophilic granulocytes, min./max. (conscious guinea-pigs; [1]): 0.6-2.5 × 10^6 /10 ml
Macrophages, median (conscious guinea-pigs; [1]): 1.2 × 10^6 /10 ml
Macrophages, median: bracketed value (relative to placebo + sham provocation = 1) (conscious guinea-pigs; [1]): 0.8
Macrophages, min./max. (conscious guinea-pigs; [1]): 0.9-2.3 × 10^6 /10 ml
Neutrophilic granulocytes, median (conscious guinea-pigs; [1]): 0.0 × 10^6 /10 ml
Neutrophilic granulocytes, median: bracketed value (relative to placebo + sham provocation = 1) (conscious guinea-pigs; [1]): 0
Neutrophilic granulocytes, min./max. (conscious guinea-pigs; [1]): 0.0-0.08 × 10^6 /10 ml
Total leucocytes, median (conscious guinea-pigs; [1]): 2.5 × 10^6 /10 ml
Total leucocytes, median: bracketed value (relative to placebo + sham provocation = 1) (conscious guinea-pigs; [1]): 1.1
Total leucocytes, min./max. (conscious guinea-pigs; [1]): 1.5-4.2 × 10^6 /10 ml
Protein content, median (conscious guinea-pigs; [2]): 4.1 mg/10 ml
Protein content, median: bracketed value (relative to placebo + sham provocation = 1) (conscious guinea-pigs; [2]): 1.1
Protein content, min./max. (conscious guinea-pigs; [2]): 2.6-11.0 mg/10 ml
N, of which protected (conscious guinea-pigs; ovalbumin provocation, N = 14, non-occurrence of dyspnoea = protective action): 8 animals

-log IC50 (PDE IV): 8.42
Structure (SMILES): O=C(Nc1c(Cl)cncc1Cl)c1ccc(OC(F)F)c(OC(F)F)c1 [Compound 2, N-(3,5-Dichloropyrid-4-yl)-3,4-bis-difluoromethoxybenzamide]

-log IC50 (PDE IV): 8.74
Structure (SMILES): O=C(Nc1c(Cl)cncc1Cl)c1ccc(OC(F)F)c(OCC2CCC2)c1 [Compound 3, N-(3,5-Dichloropyrid-4-yl)-3-cyclobutylmethoxy-4-difluoromethoxybenzamide]

-log IC50 (PDE IV): 9.18
Structure (SMILES): O=C(Nc1c(Cl)cncc1Cl)c1ccc(OC(F)F)c(OC2CCCC2)c1 [Compound 4, N-(3,5-Dichloropyrid-4-yl)-3-cyclopentyloxy-4-difluoromethoxybenzamide]
